What all share (assay): relative viability (nuclei count vs DMSO), 5 days (fraction); higher = more cells survive
Compound in the experiment “Doxorubicin + Decitabine”: COc1cccc2c1C(=O)c1c(O)c3c(c(O)c1C2=O)C[C@@](O)(C(=O)CO)C[C@@H]3O[C@H]1C[C@H](N)[C@H](O)[C@H](C)O1 [Doxorubicin] + Nc1ncn([C@H]2C[C@H](O)[C@@H](CO)O2)c(=O)n1 [Decitabine] (partner 2 µM)
In short, it runs like this:
(§1)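 A single step with final 0.05% Triton X-100, 1% formaldehyde and 1 ug/ml Hoechst fixed the cells and stained nuclei 5 days after treatment. Lung cancer cell lines in 1536-well plates had been treated by pin tool the day after seeding with one drug alone or a fixed anchor-drug dose plus five library-drug doses (not always all listed) in √10 steps, and nuclei were counted on 4× images. Relative viability is the ratio of nuclei in treated wells to nuclei in vehicle wells, taken as the median of duplicate plates.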

Compound in the experiment “Doxorubicin + Dasatinib”: COc1cccc2c1C(=O)c1c(O)c3c(c(O)c1C2=O)C[C@@](O)(C(=O)CO)C[C@@H]3O[C@H]1C[C@H](N)[C@H](O)[C@H](C)O1 [Doxorubicin] + Cc1nc(Nc2ncc(C(=O)Nc3c(C)cccc3Cl)s2)cc(N2CCN(CCO)CC2)n1 [Dasatinib] (partner 0.075 µM)
The method in brief:
as §1

Compound in the experiment “Doxorubicin + Vorinostat”: COc1cccc2c1C(=O)c1c(O)c3c(c(O)c1C2=O)C[C@@](O)(C(=O)CO)C[C@@H]3O[C@H]1C[C@H](N)[C@H](O)[C@H](C)O1 [Doxorubicin] + O=C(CCCCCCC(=O)Nc1ccccc1)NO [Vorinostat] (partner 1 µM)
The method in brief:
as §1

Compound in the experiment “BAY61-3606 + Vorinostat”: COC1=C(C=C(C=C1)C2=CC3=NC=CN3C(=N2)NC4=C(C=CC=N4)C(=O)N)OC [BAY61-3606] + O=C(CCCCCCC(=O)Nc1ccccc1)NO [Vorinostat] (partner 1 µM)
In short, it runs like this: as §1

On to NCI-H2405, for which the relative viability was found to be 0.711 with Doxorubicin + Decitabine (first compound 0.001 µM); 0.759 with Doxorubicin + Decitabine (first compound 0.003162 µM); 0.774 in the experiment with Doxorubicin + Decitabine (first compound 0.01 µM); 0.579 with Doxorubicin + Decitabine (first compound 0.03162 µM); 0.497 with Doxorubicin + Decitabine (first compound 0.1 µM); 0.187 with Doxorubicin + Dasatinib (first compound 0.001 µM). Further, the relative viability amounted to 0.208 in the experiment with Doxorubicin + Dasatinib (first compound 0.003162 µM); 0.243 in the experiment with Doxorubicin + Dasatinib (first compound 0.01 µM); 0.207 in the experiment with Doxorubicin + Dasatinib (first compound 0.03162 µM); 0.177 with Doxorubicin + Dasatinib (first compound 0.1 µM); 1.2 with Doxorubicin + Vorinostat (first compound 0.001 µM); 1.17 with Doxorubicin + Vorinostat (first compound 0.003162 µM). Besides, the relative viability in the experiment with Doxorubicin + Vorinostat (first compound 0.01 µM) came out at 0.971; with Doxorubicin + Vorinostat (first compound 0.03162 µM), 0.804; with Doxorubicin + Vorinostat (first compound 0.1 µM), 0.323; with BAY61-3606 + Vorinostat (first compound 0.02 µM), 1.17; with BAY61-3606 + Vorinostat (first compound 0.06325 µM), 1.02; with BAY61-3606 + Vorinostat (first compound 0.2 µM), 1.15. Moreover, the values for the relative viability with BAY61-3606 + Vorinostat (first compound 0.6325 µM) and in the experiment with BAY61-3606 + Vorinostat (first compound 2 µM) were 0.968 and 0.824, respectively.
On to LOU-NH91, for which the relative viability with Doxorubicin + Decitabine (first compound 0.003162 µM) came out at 0.816; with Doxorubicin + Decitabine (first compound 0.01 µM) it was 0.837; with Doxorubicin + Decitabine (first compound 0.03162 µM), 0.758; in the experiment with Doxorubicin + Decitabine (first compound 0.1 µM) it was 0.693; with Doxorubicin + Dasatinib (first compound 0.001 µM), 0.488; with Doxorubicin + Dasatinib (first compound 0.003162 µM) it was 0.646. Besides, the relative viability amounted to 0.529 with Doxorubicin + Dasatinib (first compound 0.01 µM); 0.531 with Doxorubicin + Dasatinib (first compound 0.03162 µM); 0.474 with Doxorubicin + Dasatinib (first compound 0.1 µM); 0.892 with Doxorubicin + Vorinostat (first compound 0.003162 µM); 0.853 with Doxorubicin + Vorinostat (first compound 0.01 µM); 0.615 with Doxorubicin + Vorinostat (first compound 0.03162 µM). In addition, the relative viability turned out to be 0.331 with Doxorubicin + Vorinostat (first compound 0.1 µM); 1.03 in the experiment with BAY61-3606 + Vorinostat (first compound 0.02 µM); 0.796 in the experiment with BAY61-3606 + Vorinostat (first compound 0.06325 µM); 0.871 with BAY61-3606 + Vorinostat (first compound 0.2 µM); 0.915 with BAY61-3606 + Vorinostat (first compound 0.6325 µM); 0.858 with BAY61-3606 + Vorinostat (first compound 2 µM).
As to EPLC-272H, the relative viability in the experiment with Doxorubicin + Decitabine (first compound 0.001 µM) stood at 0.382; with Doxorubicin + Decitabine (first compound 0.003162 µM), 0.324; with Doxorubicin + Decitabine (first compound 0.01 µM), 0.32; in the experiment with Doxorubicin + Decitabine (first compound 0.03162 µM), 0.387; with Doxorubicin + Decitabine (first compound 0.1 µM), 0.423; in the experiment with Doxorubicin + Dasatinib (first compound 0.001 µM), 0.41. Further, the relative viability with Doxorubicin + Dasatinib (first compound 0.003162 µM) stood at 0.418; with Doxorubicin + Dasatinib (first compound 0.01 µM), 0.371; with Doxorubicin + Dasatinib (first compound 0.03162 µM), 0.417; with Doxorubicin + Dasatinib (first compound 0.1 µM), 0.343; with Doxorubicin + Vorinostat (first compound 0.001 µM), 0.364; with Doxorubicin + Vorinostat (first compound 0.003162 µM), 0.501. For the same cell line, the relative viability with Doxorubicin + Vorinostat (first compound 0.01 µM) came out at 0.381; with Doxorubicin + Vorinostat (first compound 0.03162 µM), 0.345; with Doxorubicin + Vorinostat (first compound 0.1 µM) it was 0.345; with BAY61-3606 + Vorinostat (first compound 0.02 µM), 0.402; with BAY61-3606 + Vorinostat (first compound 0.06325 µM), 0.401; with BAY61-3606 + Vorinostat (first compound 0.2 µM), 0.579. For the same cell line, the values for the relative viability with BAY61-3606 + Vorinostat (first compound 0.6325 µM) and with BAY61-3606 + Vorinostat (first compound 2 µM) were 0.339 and 0.37, respectively.
NCI-H2342: the relative viability with Doxorubicin + Decitabine (first compound 0.001 µM) amounted to 0.703; with Doxorubicin + Decitabine (first compound 0.003162 µM) it was 0.778; with Doxorubicin + Decitabine (first compound 0.01 µM), 0.786; in the experiment with Doxorubicin + Decitabine (first compound 0.03162 µM) it was 0.63; with Doxorubicin + Decitabine (first compound 0.1 µM), 0.748; with Doxorubicin + Dasatinib (first compound 0.001 µM), 0.308. Further, the relative viability was 0.317 with Doxorubicin + Dasatinib (first compound 0.003162 µM); 0.323 with Doxorubicin + Dasatinib (first compound 0.01 µM); 0.298 with Doxorubicin + Dasatinib (first compound 0.03162 µM); 0.326 in the experiment with Doxorubicin + Dasatinib (first compound 0.1 µM); 0.757 with Doxorubicin + Vorinostat (first compound 0.001 µM); 0.845 in the experiment with Doxorubicin + Vorinostat (first compound 0.003162 µM). Besides, the relative viability was 0.692 in the experiment with Doxorubicin + Vorinostat (first compound 0.01 µM); 0.535 in the experiment with Doxorubicin + Vorinostat (first compound 0.03162 µM); 0.696 with Doxorubicin + Vorinostat (first compound 0.1 µM); 0.87 with BAY61-3606 + Vorinostat (first compound 0.02 µM); 0.818 with BAY61-3606 + Vorinostat (first compound 0.06325 µM); 0.835 with BAY61-3606 + Vorinostat (first compound 0.2 µM). Further, the relative viability was 0.867 in the experiment with BAY61-3606 + Vorinostat (first compound 0.6325 µM) and 0.762 with BAY61-3606 + Vorinostat (first compound 2 µM).
As for NCI-H1975, the relative viability in the experiment with Doxorubicin + Decitabine (first compound 0.001 µM) came to 0.391; with Doxorubicin + Decitabine (first compound 0.003162 µM), 0.393; with Doxorubicin + Decitabine (first compound 0.01 µM) it was 0.392; with Doxorubicin + Decitabine (first compound 0.03162 µM), 0.317; with Doxorubicin + Decitabine (first compound 0.1 µM) it was 0.322; with Doxorubicin + Dasatinib (first compound 0.001 µM) it was 0.406. Further, the relative viability turned out to be 0.356 with Doxorubicin + Dasatinib (first compound 0.003162 µM); 0.331 in the experiment with Doxorubicin + Dasatinib (first compound 0.01 µM); 0.304 with Doxorubicin + Dasatinib (first compound 0.03162 µM); 0.158 with Doxorubicin + Dasatinib (first compound 0.1 µM); 0.731 with Doxorubicin + Vorinostat (first compound 0.001 µM); 0.735 in the experiment with Doxorubicin + Vorinostat (first compound 0.003162 µM). Further, the relative viability in the experiment with Doxorubicin + Vorinostat (first compound 0.01 µM) came to 0.678; in the experiment with Doxorubicin + Vorinostat (first compound 0.03162 µM), 0.679; in the experiment with Doxorubicin + Vorinostat (first compound 0.1 µM) it was 0.531; with BAY61-3606 + Vorinostat (first compound 0.02 µM), 0.849; with BAY61-3606 + Vorinostat (first compound 0.06325 µM), 0.734; with BAY61-3606 + Vorinostat (first compound 0.2 µM) it was 0.712. In addition, the relative viability with BAY61-3606 + Vorinostat (first compound 0.6325 µM) turned out to be 0.722; with BAY61-3606 + Vorinostat (first compound 2 µM) it was 0.585.
In the case of NCI-H322M, the relative viability was determined as 0.757 in the experiment with Doxorubicin + Decitabine (first compound 0.001 µM); 0.58 with Doxorubicin + Decitabine (first compound 0.003162 µM); 0.735 with Doxorubicin + Decitabine (first compound 0.01 µM); 0.688 with Doxorubicin + Decitabine (first compound 0.03162 µM); 0.553 with Doxorubicin + Decitabine (first compound 0.1 µM); 0.29 with Doxorubicin + Dasatinib (first compound 0.001 µM). In addition, the relative viability amounted to 0.237 with Doxorubicin + Dasatinib (first compound 0.003162 µM); 0.27 with Doxorubicin + Dasatinib (first compound 0.01 µM); 0.275 in the experiment with Doxorubicin + Dasatinib (first compound 0.03162 µM); 0.272 with Doxorubicin + Dasatinib (first compound 0.1 µM); 1.01 with Doxorubicin + Vorinostat (first compound 0.001 µM); 0.836 with Doxorubicin + Vorinostat (first compound 0.003162 µM). Besides, the relative viability in the experiment with Doxorubicin + Vorinostat (first compound 0.01 µM) turned out to be 0.85; with Doxorubicin + Vorinostat (first compound 0.03162 µM), 0.769; with Doxorubicin + Vorinostat (first compound 0.1 µM) it was 0.57; in the experiment with BAY61-3606 + Vorinostat (first compound 0.02 µM), 0.985; in the experiment with BAY61-3606 + Vorinostat (first compound 0.06325 µM), 0.872; with BAY61-3606 + Vorinostat (first compound 0.2 µM) it was 0.974. The relative viability with BAY61-3606 + Vorinostat (first compound 0.6325 µM) was found to be 0.866; with BAY61-3606 + Vorinostat (first compound 2 µM) it was 0.74.
In the case of NCI-H520, the relative viability is 0.53 with Doxorubicin + Decitabine (first compound 0.001 µM); 0.471 with Doxorubicin + Decitabine (first compound 0.003162 µM); 0.416 with Doxorubicin + Decitabine (first compound 0.01 µM); 0.328 in the experiment with Doxorubicin + Decitabine (first compound 0.03162 µM); 0.47 with Doxorubicin + Decitabine (first compound 0.1 µM); 0.234 with Doxorubicin + Dasatinib (first compound 0.001 µM). The relative viability in the experiment with Doxorubicin + Dasatinib (first compound 0.003162 µM) was found to be 0.218; with Doxorubicin + Dasatinib (first compound 0.01 µM), 0.202; in the experiment with Doxorubicin + Dasatinib (first compound 0.03162 µM), 0.151; with Doxorubicin + Dasatinib (first compound 0.1 µM), 0.183; in the experiment with Doxorubicin + Vorinostat (first compound 0.001 µM) it was 0.757; with Doxorubicin + Vorinostat (first compound 0.003162 µM) it was 0.733. Further, the relative viability is 0.788 in the experiment with Doxorubicin + Vorinostat (first compound 0.01 µM); 0.596 with Doxorubicin + Vorinostat (first compound 0.03162 µM); 0.564 in the experiment with Doxorubicin + Vorinostat (first compound 0.1 µM); 0.768 with BAY61-3606 + Vorinostat (first compound 0.02 µM); 0.861 with BAY61-3606 + Vorinostat (first compound 0.06325 µM); 0.624 with BAY61-3606 + Vorinostat (first compound 0.2 µM). In addition, the relative viability was found to be 0.71 in the experiment with BAY61-3606 + Vorinostat (first compound 0.6325 µM) and 0.638 in the experiment with BAY61-3606 + Vorinostat (first compound 2 µM).

Source of the values: the supplement of paper PMC10307832.
